Measurements from PubChem BioAssay AID1259375 (The Scripps Research Institute Molecular Screening Center, 2018).
Activity calls are given as the source filed them. The rule behind the calls is not given here.

molecular target: Microphthalmia-associated transcription factor (Homo sapiens) (UniProt O75030); test: MITF inhibitors by FRET titration, dose response, biochemical, high throughput (AID 1259375); conditions: FRET biochemical assay, MITF inhibition;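 note: FRET between CFP-tagged and YFP-tagged MITF protein partners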
Sequence (O75030 whole entry, looked up): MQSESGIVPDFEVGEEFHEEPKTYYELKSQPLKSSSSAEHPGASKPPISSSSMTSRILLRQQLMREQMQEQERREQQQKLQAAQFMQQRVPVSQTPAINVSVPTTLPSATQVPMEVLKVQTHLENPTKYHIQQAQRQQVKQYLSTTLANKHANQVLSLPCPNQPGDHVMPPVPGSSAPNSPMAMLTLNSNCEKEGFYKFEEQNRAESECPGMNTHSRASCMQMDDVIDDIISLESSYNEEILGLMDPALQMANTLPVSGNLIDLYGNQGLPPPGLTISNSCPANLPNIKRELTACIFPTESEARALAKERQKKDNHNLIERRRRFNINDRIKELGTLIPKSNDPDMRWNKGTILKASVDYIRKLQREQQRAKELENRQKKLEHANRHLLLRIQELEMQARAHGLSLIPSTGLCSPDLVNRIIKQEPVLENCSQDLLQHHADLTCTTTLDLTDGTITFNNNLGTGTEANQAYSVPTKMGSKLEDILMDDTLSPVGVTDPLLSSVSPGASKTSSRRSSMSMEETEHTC

Row | Compound | IC50
1 | COc1c(O)cc(O)cc1O | > 6.48 µM (inactive)
2 | O=c1c(O)c(-c2ccc(O)cc2O)oc2cc(O)cc(O)c12 | > 6.48 µM (inactive)
3 | Cc1cccc(OCC(=O)N2CCN(Cc3cccc(Br)c3)CC2)c1 | > 6.48 µM (inactive)
4 | O=C(NCCN1CCOCC1)c1cccc(CN(C(=O)c2nc3ccc(-c4cn[nH]c4)cc3s2)C2CC2)c1 | > 6.48 µM (inactive)
5 | O=C(Nc1ccc(N2CCOCC2)cc1)c1ccnc(Nc2ncccn2)c1 | > 7.06 µM (inactive)
6 | O=C(O)c1cc(S(=O)(=O)Nc2ccc(-n3cnnn3)cc2)ccc1O | > 7.18 µM (inactive)
7 | CCOC(=O)C1CCCN(Cc2cccc(Br)c2)C1 (stereo not given) | > 6.48 µM (inactive)
8 | CCOC1=CC(c2ccc3c(c2)OCO3)CC(=O)c2c(C)oc(C)c21 (stereo not given) | > 6.48 µM (inactive)
9 | Cc1ccc(/C(C#N)=C\c2ccco2)cc1 | > 6.48 µM (inactive)
10 | O=C(NCCc1ccc(O)cc1)c1cccc(-c2cccs2)c1 | > 6.26 µM (inactive)
11 | NC1(C(Cl)(Cl)Cl)Oc2ccccc2O1 | > 6.48 µM (inactive)
12 | C/C(N)=C(/C#N)C(=O)COC(=O)c1c2c(nc3ccccc13)/C(=C/c1ccco1)CC2 | > 6.27 µM (inactive)
13 | N/C(=N\[N+](=O)[O-])N/N=C\c1ccc(-c2ccc(O)c(C(=O)O)c2)o1 | 4.95 µM
14 | O=P(O)(O)C(Cl)(Cl)P(=O)(O)O | > 6.48 µM (inactive)
15 | O=c1cc(/C=C/c2ccc(O)cc2)nc2nn[nH]n12 | > 6.48 µM (inactive)
16 | O=C(Nc1ccc(N2CCOCC2)cc1)c1cccc(Nc2ccncn2)n1 | > 7.56 µM (inactive)
17 | O=C(OC1CCOC1=O)c1ccc(S(=O)(=O)NCc2ccco2)cc1 (stereo not given) | > 7.1 µM (inactive)
18 | O=C(NC1CCN(Cc2ccccc2)CC1)c1ccc2nc(-c3cccs3)sc2c1 | > 6.38 µM (inactive)
19 | O=P(O)(O)C(Sc1ccc(Cl)cc1)P(=O)(O)O | > 6.48 µM (inactive)
20 | N[C@@H](C(=O)N[C@@H]1C(=O)N2C(C(=O)O)=C(CSC3CNNN3)CS[C@H]12)c1ccc(O)cc1 (stereo not given in full) (tested in a mixture with another compound) | > 5.58 µM (inactive)
21 | O=C(O)c1cc(-c2ccco2)nc2ccccc12 | > 7.59 µM (inactive)
22 | CN(C)CCS(=O)c1cc(-c2cn[nH]c2)ccc1NC(=O)[C@H]1Cc2cc(F)ccc2CN1 (stereo not given in full) | > 6.48 µM (inactive)
23 | O=C1S/C(=C\c2ccco2)C(=O)N1c1ccccc1Cl | inactive
24 | CN(CCc1ccccn1)Cc1ccc(F)cc1 | > 6.59 µM (inactive)

Row | Compound | IC50
25 | Clc1ccc2c(c1)CC(c1nc(Nc3cncnc3)c3ccccc3n1)CO2 (stereo not given) | > 6.48 µM (inactive)
26 | Cc1cc(NC(=O)C2CCN(C(=O)c3ccc(-n4cccc4)cc3)CC2)no1 | > 6.48 µM (inactive)
27 | CN=C1SC(CC(=O)Nc2cccc(C(=O)O)c2)C(=O)N1C (stereo not given) | > 6.48 µM (inactive)
28 | O=C(/C=C/c1ccco1)NCc1cccc(CNC(=O)/C=C/c2ccco2)c1 | > 6.48 µM (inactive)
29 | CC(=O)NCC(c1cccs1)S(=O)(=O)c1ccc(C)cc1 (stereo not given) | > 6.41 µM (inactive)
30 | COc1ccc2c(c1)CC(C(=O)Nc1ccc(-c3cn[nH]c3)cc1OCC(N)=O)CO2 (stereo not given) | > 6.48 µM (inactive)
31 | O=C1NC(=O)/C(=C\c2ccc(O)cc2O)S1 | > 6.48 µM (inactive)
32 | C=CCc1cc(C)ccc1OCCCCn1ccnc1 | > 6.48 µM (inactive)
33 | O=S(=O)(c1ccccc1C(F)(F)F)N1CCC(c2nc3ccccc3[nH]2)CC1 | > 6.48 µM (inactive)
34 | CN1CC[C@H](Oc2cc(-c3cn[nH]c3)ccc2NC(=O)OCc2ccccc2)C1 | > 6.48 µM (inactive)
35 | C=C1C(C(=O)NCc2ccco2)C1C(=O)NCc1ccco1 (stereo not given) | > 7.72 µM (inactive)
36 | Cc1noc(C2CN(C(=O)c3ccc(-n4cccc4)cc3)C2)n1 | > 6.48 µM (inactive)
37 | CC(C)C[C@@H]1NC(=O)[C@H]2CN(C(=O)NCc3ccccc3)CCN2C1=O | > 6.48 µM (inactive)
38 | CCN(CC)C(=S)NC(=O)/C=C/c1ccco1 | > 6.48 µM (inactive)
39 | C[C@@H](O)[C@@H]1NC(=O)[C@H]2CN(C(=O)NC3CCCCC3)CCN2C1=O | > 6.48 µM (inactive)
40 | CC(C)N(C(=O)COC(=O)c1cc(-c2ccco2)nc2ccccc12)C(C)C | > 6.82 µM (inactive)
41 | O=C1N[C@H](Cc2ccccc2)C(=O)N2CCN(C(=O)NCc3ccccc3)C[C@H]12 | > 6.48 µM (inactive)
42 | O=C(/C=C/c1ccco1)ON1C(=O)c2ccccc2C1=O | > 6.48 µM (inactive)
43 | CCCCn1c(=O)[nH]c(=O)c2c1nc(-c1ccc([N+](=O)[O-])o1)n2C | > 7 µM (inactive)
44 | O=C(c1cccc(F)c1)N1CCN(Cc2ccncc2)CC1 | > 5.66 µM (inactive)
45 | NC(=O)Cn1cnc2sc3c(c2c1=O)CCC3 | > 6.48 µM (inactive)
46 | CN(C)CCOCCOc1ccccc1-c1ccccc1 | > 6.48 µM (inactive)
47 | CNC(=O)COc1cc(-c2cn[nH]c2)ccc1NC(=O)C1COc2ccc(OC)cc2C1 (stereo not given) | > 6.48 µM (inactive)
48 | N#C/C(=C/c1ccco1)c1cccc(F)c1 | > 6.48 µM (inactive)

Row | Compound | IC50
49 | Cc1cc(OCCOCCN2CCNCC2)ccc1Cl | > 6.48 µM (inactive)
50 | CC(=O)NS(=O)(=O)c1ccc(NC(=O)c2ccc([N+](=O)[O-])o2)cc1 | > 6.61 µM (inactive)
51 | COCCCNC(=O)/C(C#N)=C/c1ccc(-c2ccc(Cl)c(C(=O)O)c2)o1 | > 6.48 µM (inactive)
52 | O=C(OCCCC(=O)N1CCOCC1)c1cc(-c2ccco2)nc2ccccc12 | > 6.58 µM (inactive)
53 | O=C(/C=C/c1ccco1)Nc1nnc(-c2ccco2)s1 | > 6.48 µM (inactive)
54 | C=CC1=C(C)C2=Cc3c(C=C)c(C)c4[n]3[Sn+2][n]3c(c(C)c(CCC(=O)O)c3=CC3=NC(=C4)C(C)=C3CCC(=O)O)=CC1=N2 | > 6.48 µM (inactive)
55 | O=C(Cn1ncn2cccc2c1=O)N1CCc2ccccc2C1 | > 6.48 µM (inactive)
56 | CC(O)C(=O)N/N=C/C=C/c1ccc([N+](=O)[O-])o1 (stereo not given) | > 7.17 µM (inactive)
57 | O=C1N[C@H](Cc2ccc(O)cc2)C(=O)N2CCN(C(=O)NCc3ccccc3)C[C@H]12 | > 6.48 µM (inactive)
58 | CCN1CCN(Cc2coc3ccccc3c2=O)CC1 | > 6.48 µM (inactive)
59 | O=C(NCc1cccnc1)c1ccnc(-c2cccs2)c1 | > 6.93 µM (inactive)
60 | COc1ccc(C)cc1NS(=O)(=O)c1ccc2c(c1)CCC(=O)N2 | > 6.48 µM (inactive)
61 | O=C1N[C@H](Cc2ccc(O)cc2)C(=O)N2CCN(C(=O)NC3CCCCC3)C[C@H]12 | > 6.48 µM (inactive)
62 | S=c1[nH]nc(-c2cccnc2)n1/N=C/C=C/c1ccco1 | > 6.48 µM (inactive)
63 | O=C(O)c1ccc(NC2OC(CO)C(O)C2O)cc1 (stereo not given) | > 5.62 µM (inactive)
64 | Cn1nnc(-c2ccc(Nc3nccc(-c4ccc5nc(C6CC6)[nH]c(=O)c5c4)n3)cc2)n1 | > 6.48 µM (inactive)
65 | CCN1CCc2c(sc(NC(=S)NC(=O)/C=C/c3ccco3)c2C(N)=O)C1 | > 6.48 µM (inactive)
66 | COc1ccc2c(c1)CC(C(=O)Nc1ccc(-c3cn[nH]c3)cc1OCC#N)CO2 (stereo not given) | > 6.48 µM (inactive)
67 | O=C(COC(=O)c1cc(-c2ccco2)nc2ccccc12)NC1CC1 | > 6.94 µM (inactive)
68 | CCc1ccc(NC(=O)CS(=O)CC(=O)NCCCc2ccccc2)cc1 (stereo not given) | > 6.48 µM (inactive)
69 | O=C1Nc2ccc(S(=O)(=O)NCc3ccccc3)cc2C1=O | > 6.08 µM (inactive)
70 | O=C(C1CCC(Nc2nccc(-c3ccc4nc(C5CC5)[nH]c(=O)c4c3)n2)CC1)N1CCCC1 (stereo not given) | > 6.48 µM (inactive)
71 | COc1ccc(C[C@@H]2NC(=O)[C@H]3CN(C(=O)NC4CCCCC4)CCN3C2=O)cc1 | > 6.48 µM (inactive)
72 | Cc1oc(C(=O)O)cc1CSCCSCc1cc(C(=O)O)oc1C | > 6.48 µM (inactive)

Row | Compound | IC50
73 | Cc1cc2c(c(=O)[nH]1)C(=O)O/C2=C\c1ccc(C)o1 | > 6.86 µM (inactive)
74 | CCOC(=O)Cc1[nH]nc2c1C1(C(=O)N(CC)c3ccccc31)C(C#N)=C(N)O2 (stereo not given) | > 6.48 µM (inactive)
75 | CC(C)C[C@@H]1NC(=O)[C@H]2CN(C(=O)NC3CCCCC3)CCN2C1=O | > 6.48 µM (inactive)
76 | Nc1ccc(NCCO)c(N)c1 | > 5.9 µM (inactive)
77 | COC(=O)CSc1nnc(-c2cnccn2)n1C | > 6.48 µM (inactive)
78 | C/C(=N\NC(=O)CC1=NNC(=O)C1)c1ccco1 | > 6.48 µM (inactive)
79 | N#Cc1c(-c2ccco2)cc(-c2ccco2)nc1N | > 6.48 µM (inactive)
80 | Cc1ccc(-c2ncn(-c3ccc(Nc4cc(-n5cnc(Nc6ccccc6)n5)c(F)cn4)cc3)n2)cn1 | > 6.48 µM (inactive)
81 | Cc1ccc(C)n1C(CC(=O)O)c1ccsc1 (stereo not given) | > 6.76 µM (inactive)
82 | CCOC(=O)C1C2NC(=S)N(c3ccccc3)C1(C)Oc1cc(OC)ccc12 (stereo not given) | > 6.4 µM (inactive)
83 | COc1cccc(COC(=O)Nc2ccc(-c3cn[nH]c3)cc2N(C)CCN(C)C)c1 | > 6.48 µM (inactive)
84 | Cc1cccc(CN2CCN(C3CCC(C)CC3)CC2)c1 (stereo not given) | > 5.54 µM (inactive)
85 | CN(Cc1ccco1)S(=O)(=O)c1ccc2[nH]cc(C(=O)O)c(=O)c2c1 | > 6.48 µM (inactive)
86 | Oc1ccc(CCNc2cc(-c3cccs3)ncn2)cc1 | > 6.7 µM (inactive)
87 | O=C(O)c1cc([N+](=O)[O-])cc2c1-c1c(cc([N+](=O)[O-])cc1[N+](=O)[O-])/C2=C/c1ccco1 | 1.77 µM
88 | Nc1cccc(N2C(=O)c3cc(S(=O)O)cc4c(N)c(S(=O)O)cc(c34)C2=O)c1 | > 6.48 µM (inactive)
89 | O=C1N[C@@H](CC2CCCCC2)C(=O)N2CCN(C(=O)NCc3ccccc3)C[C@H]12 | > 6.48 µM (inactive)
90 | O=S(=O)(N=S(=O)(/C=C/c1ccccc1)c1ccccc1)c1ccccc1 (stereo not given) | > 5.36 µM (inactive)
91 | COC(=O)c1c(NC(=O)c2ccc([N+](=O)[O-])o2)sc(Cc2ccc3c(c2)OCO3)c1C | > 6.42 µM (inactive)
92 | COc1ccc(/C=C2\N=C(c3ccc4c(c3)OCO4)OC2=O)cc1Cl | > 5.41 µM (inactive)
93 | O=C(c1ccncc1)N1C2C=CC(C2)C1(C(F)(F)F)C(F)(F)F (stereo not given) | > 6.48 µM (inactive)
94 | Cc1cccc(CN2CCN(S(=O)(=O)c3ccccc3[N+](=O)[O-])CC2)c1 | > 5.08 µM (inactive)
95 | CCOC(=O)C1C2NC(=S)N(CC)C1(C)Oc1ccc(Cl)cc12 (stereo not given) | > 8.6 µM (inactive)
